The numbers were not newly measured in patent US10154967B2, “2,2′,6,6′-tetraisopropyl-4,4′-biphenol lipid microsphere preparations and preparation methods therefor” (XI'AN LIBANG PHARMACEUTICAL CO., LTD, priority 2012, dated 2018), which cites them from elsewhere.

Data set [1] relates to GABA receptors.
The test system of data set [2] is GABA receptors. This is another data set of the same source.
For data set [3] the following is noted: compared with propofol.
Data set [4] has as its system excitotoxic effect induced by kainate (kainic acid).
The next data set relates to NMDA receptors. The settings on record: regulating the Ca2+ influx in Ca2+ channels.

`CC(C)c1cc(-c2cc(C(C)C)c(O)c(C(C)C)c2)cc(C(C)C)c1O` [biphenol]: the lipid solubility result was “highly lipid soluble” and the solubility in water entry is recorded as “difficult to dissolve in water”. In the data set with GABA receptors [1], the “action at GABA receptors” value is recorded as “agonist”. The “affinity towards GABA receptors” value in the data set on GABA receptors [2] is on record as “strong affinity”. The antioxidant strength result in data set [3] is recorded as “significantly stronger antioxidant than propofol”. The “protection against the excitotoxic effect induced by kainate” value in data set [4] is listed as “protection”. Moreover, the loss of consciousness entry in the data set on patients is given as “does not cause the patients to lose consciousness”. The “action at NMDA receptors” value in the data set on NMDA receptors is on record as “antagonist”.
